5 molecules from BindingDB's records for doi:10.1111/cbdd.12161 (Dalian University of Technology, 2013) can be followed below.

In this assay the target is T1, Induced myeloid leukemia cell differentiation protein Mcl-1 [172-327] (Homo sapiens, UniProt Q07820).
T1 construct: 172-327
T1 sequence (Q07820 172-327): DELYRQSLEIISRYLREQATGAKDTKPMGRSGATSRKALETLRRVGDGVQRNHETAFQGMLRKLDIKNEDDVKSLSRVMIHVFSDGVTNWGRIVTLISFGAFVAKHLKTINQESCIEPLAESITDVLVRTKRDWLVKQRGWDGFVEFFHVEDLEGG
As to the kind of experiment: ITC experiments. To be noted: pH 8; 25 °C. As to the method:
ITC experiments were carried out using iTC200 (Microcal LLC, Northampton, MA, USA) with each of the compounds 1-6 and Mcl-1 protein. The heat of reaction was obtained by making 16 injections (2.4 µL each) of the ligand (final concentration in the syringe of 200 µM in 50 mM Tris, 150 mM NaCl, and 5% DMSO, pH 8.0) into the reaction cell that contained Mcl-1 in the same buffer (final protein concentration of 20 µM). The experiments were done at 25°C and at a stirring speed of 500 rpm. For the control experiment, the sample cell was filled with the assay buffer and the compound solution was added, respectively.
For the molecule `Cc1ccc(Sc2ccc3c(c2)C(=O)c2cc(O)c(O)cc2C3=O)cc1`, binding was characterised by a dissociation constant (Kd) of 950 nM.

As to `O=C1c2ccc(Sc3ccccc3)cc2C(=O)c2cc(O)c(O)cc21`, the Kd (as a rule, a measure of binding affinity in units of concentration) worked out at 1470 nM.

Take `CC(C)c1ccc(Sc2ccc3c(c2)C(=O)c2cc(O)c(O)cc2C3=O)cc1`: the Kd was found to be 238 nM.

In the case of `O=C1c2ccc(Br)cc2C(=O)c2cc(O)c(O)cc21`, the Kd was 1840 nM.

Molecule `O=C1c2ccccc2C(=O)c2cc(O)c(O)cc21` had a Kd of 1850 nM.
